From patent US7259262B2, “Arylazole derivatives, their manufacture and use as pharmaceutical agents” (Hoffmann-La Roche Inc., priority 2003, dated 2007)

Columns and labels:
[1] = tested on: A549 cells (human lung carcinoma cell line); assay: A549 cell proliferation MTT assay; type: cell-based; conditions: 120 h, 5 days incubation, MTT readout at 550 nm
Procedure: A549 cells (human lung carcinoma cell line) were cultivated in RPMI 1640, 2.5% FCS, 2 mM glutamine, 100 u/ml Penicillin, 100 μg/ml Streptomycin. For the assay the cells were seeded in 384 well plates, 900 cells per well, in the same medium. The next day compounds (dissolved 10 mM in DMSO) were added in various concentrations ranging from 3 μM to 0.15 nM (10 concentrations, 1:3 diluted). After 5 days the MTT assay was done mainly according to the instructions of the manufacturer (Cell proliferation kit I, MTT, from Roche Molecular Biochemicals). In brief, MTT labeling reagent was added to a final concentration of 0.5 mg/ml, added and incubated for 4 hrs at 37 C, 5% CO2. During this incubation time purple formazan crystals are formed. After addition of the solubilization solution (20% SDS in 0.02 M HCl) the plates were incubated overnight at 37° C., 5% CO2.
After careful mixing the plates were measured in Victor 2 (scanning multiwell spectrophotometer, Wallac) at 550 nm.
A decrease in number of living cells results in a decrease in the total metabolic activity in the sample. The decrease directly correlates to the amount of purple color resulting from the solubilization of the purple formazan crystals.
A549: 900 cells in 60 μl per well of 384 well plate (Greiner) • Medium: RPMI 1640, 2.5% FCS, glutamine, pen/strep. • Incubate 1 day at 37° C.
Induction: • Dilution of compound in DMSO: 3 μl 10 mM+27 μl DMSO, dilute 1:3 • Add 2 μl of compound dilution row to 95 μl of medium • Add 10 μl of compound dilution to 60 μl medium in test plate ? 0.3% DMSO per well • Incubate 120 h (5 days) at 37° C., 5% CO2
Analysis: • Add 7 μl MTT (5 mg/ml/well), incubate 4 h at 37° C. • Add 30 μl lysis buffer (20% SDS, 0.04 N HCl) per well • Incubate overnight at 37° C.
Measurement: • Victor 2; 550 nm • Determination of IC50 was done using XL-fit.

SMILES | melting point [°C] | IC50 [1] [µM]
COc1ccc(/C=C/c2nc(COc3ccc(-c4nc(Cn5ccnn5)co4)cc3)co2)cc1 [Example 1, 1-[2-(4-{2-[(E)-2-(4-Methoxy-phenyl)-vinyl]-oxazol-4-ylmethoxy}-phenyl)-oxazol-4-ylmethyl]-1H-[1,2,3]triazole] | 178 | –
FC(F)(F)Oc1ccc(/C=C/c2nc(COc3ccc(-c4nc(Cn5ccnn5)co4)cc3)co2)cc1 [Example 2, 1-[2-(4-{2-[(E)-2-(4-Trifluoromethoxy-phenyl)-vinyl]-oxazol-4-ylmethoxy}-phenyl) -oxazol-4-ylmethyl]-1H-[1,2,3]triazole] | 166 to 172 | 0.046
FC(F)(F)Sc1ccc(/C=C/c2nc(COc3ccc(-c4nc(Cn5ccnn5)co4)cc3)co2)cc1 [Example 3, 1-[2-(4-{2-[(E)-2-(−4-Trifluoromethylsulfanyl-phenyl)-vinyl]-oxazol-4-ylmethoxy}-phenyl)-oxazol-4-ylmethyl]-1H-[1,2,3]triazole] | 172 to 173 | 0.046
FC(F)(F)c1ccc(/C=C/c2nc(COc3ccc(-c4nc(Cn5ccnn5)co4)cc3)co2)cc1 [Example 4, 1-[2-(4-{2-[(E)-2-(4-Trifluoromethyl-phenyl)-vinyl]-oxazol-4-ylmethoxy}-phenyl) -oxazol-4-ylmethyl]-1H-[1,2,3]triazole] | 170 | 0.045
Clc1ccc(/C=C/c2nc(COc3ccc(-c4nc(Cn5ccnn5)co4)cc3)co2)cc1 [Example 5, 1-[2-(4-{2-[(E)-2-(4-Chloro-phenyl)-vinyl]-oxazol-4-ylmethoxy}-phenyl)-oxazol-4-ylmethyl]-1H-[1,2,3]triazole] | 208 to 210 | 0.069
Fc1cc(C(F)(F)F)ccc1/C=C/c1nc(COc2ccc(-c3nc(Cn4ccnn4)co3)cc2)co1 [Example 6, 1-[2-(4-{2-[(E)-2-(2-Fluoro-4-trifluoromethyl-phenyl)-vinyl]-oxazol-4-ylmethoxy}-phenyl)-oxazol-4-ylmethyl]-1H-[1,2,3]triazole] | 152 to 154 | 0.007
Fc1cc(C(F)(F)F)ccc1/C=C/c1nc(COc2ccc(-c3nc(Cn4ccnn4)cs3)cc2)co1 [Example 8, 1-[2-(4-{2-[(E)-2-(2-Fluoro-4-trifluoromethyl-phenyl)-vinyl]-oxazol-4-ylmethoxy}-phenyl)-thiazol-4-ylmethyl]-1H-[1,2,3]triazole] | 180 to 182 | 0.07
Fc1cc(Cl)ccc1/C=C/c1nc(COc2ccc(-c3nc(Cn4ccnn4)co3)cc2)co1 [Example 9, 1-[2-(4-{2-[(E)-2-(4-Chloro-2-fluoro-phenyl)-vinyl]-oxazol-4-ylmethoxy}-phenyl)oxazole-4-ylmethyl]-1H-[1,2,3]triazole] | 193 to 194 | 0.011
FC(F)(F)c1ccc(/C=C/c2nc(COc3ccc(-c4nc(Cn5ccnn5)co4)cc3)cs2)cc1 [Example 10, 1-[2-(4-{2-[(E)-2-(4-Trifluoromethyl-phenyl)-vinyl]-thiazol-4-ylmethoxy}-phenyl) -oxazol-4-ylmethyl]-1H-[1,2,3]triazole] | 179 to 181 | 0.06
Fc1cc(C(F)(F)F)ccc1/C=C/c1nc(COc2ccc(-c3nc(Cn4ccnc4)co3)cc2)co1 [Example 13, 2-[(E)-2-(2-Fluoro-4-trifluoromethyl-phenyl)-vinyl]-4-[4-(4-imidazol-1-ylmethyl-oxazol-2-yl)-phenoxymethyl]-oxazole] | 150 to 153 | –
FC(F)(F)Sc1ccc(/C=C/c2nc(COc3ccc(-c4nc(Cn5ccnc5)co4)cc3)co2)cc1 [Example 16, 1-[2-(4-{2-[(E)-2-(−4-Trifluoromethylsulfanyl-phenyl)-vinyl]-oxazol-4-ylmethoxy}-phenyl)-oxazol-4-ylmethyl]-1H-imidazole] | 144 to 145 | –
OCCc1nccn1Cc1coc(-c2ccc(OCc3coc(/C=C/c4ccc(Cl)cc4F)n3)cc2)n1 [Example 18, 2-{1-[2-(4-{2-[(E)-2-(4-Chloro-2-fluoro-phenyl)-vinyl]-oxazol-4-ylmethoxy}-phenyl)-oxazole-4-ylmethyl]-1H-imidazol-2-yl}-ethanol] | 170 to 172 | –

Other lines, results leading:

melting point [°C] | IC50 [1] [µM] | SMILES
163 to 165 | 0.037 | FC(F)(F)c1ccc(/C=C/c2nc(COc3ccc(-c4nc(Cn5ccnn5)cs4)cc3)co2)cc1 [Example 7, 1-[2-(4-{2-[(E)-2-(4-Trifluoromethyl-phenyl)-vinyl]-oxazol-4-ylmethoxy}-phenyl) -thiazol-4-ylmethyl]-1H-[1,2,3]triazole]
146 to 148 | – | FC(F)(F)c1ccc(/C=C/c2nc(COc3ccc(-c4nc(Cn5ccnn5)cs4)cc3)cs2)cc1 [Example 11, 1-[2-(4-{2-[(E)-2-(4-Trifluoromethyl-phenyl)-vinyl]-thiazol-4-ylmethoxy}-phenyl) -thiazole-4-ylmethyl]-1H-[1,2,3]triazole]
133 to 135 | – | Fc1cc(C(F)(F)F)ccc1/C=C/c1nc(COc2ccc(-c3nc(Cn4ccnc4)cs3)cc2)co1 [Example 12, 2-[(E)-2-(2-Fluoro-4-trifluoromethyl-phenyl)-vinyl]-4-[4-(4-imidazol-1-ylmethyl-thiazole-2-yl)-phenoxymethyl]-oxazole]
166 to 167 | – | Fc1cc(Cl)ccc1/C=C/c1nc(COc2ccc(-c3nc(Cn4ccnc4)co3)cc2)co1 [Example 14, 2-[(E)-2-(2-Fluoro-4-chloro-phenyl)-vinyl]-4-[4-(4-imidazol-1-ylmethyl-oxazol-2-yl)phenoxymethyl]-oxazole]
167 to 169 | – | [O-][S+](c1ccc(/C=C/c2nc(COc3ccc(-c4nc(Cn5ccnn5)co4)cc3)co2)cc1)C(F)(F)F (stereo not shown) [Example 15, 1-[2-(4-{2-[(E)-2-(−4-Trifluoromethylsulfinyl-phenyl)-vinyl]-oxazol-4-ylmethoxy}-phenyl)-oxazol-4-ylmethyl]-1H-[1,2,3]triazole]
134 to 136 | – | [O-][S+](c1ccc(/C=C/c2nc(COc3ccc(-c4nc(Cn5ccnc5)co4)cc3)co2)cc1)C(F)(F)F (stereo not shown) [Example 17, 1-[2-(4-{2-[(E)-2-(−4-Trifluoromethylsulfinyl-phenyl)-vinyl]-oxazol-4-ylmethoxy}-phenyl)-oxazol-4-ylmethyl]-1H-imidazole]
172 to 174 | – | FS(F)(F)(F)(F)c1ccc(/C=C/c2nc(COc3ccc(-c4nc(Cn5ccnn5)co4)cc3)co2)cc1 [Example 19, 1-[2-(4-{2-[(E)-2-(4-Pentafluorosulfanyl-phenyl)-vinyl]-oxazol-4-ylmethoxy}-phenyl) -oxazol-4-ylmethyl]-1H-[1,2,3]triazole]
